# Measured values published in patent publication US8697736B2, “1H-benzimidazole-4-carboxamides substituted with phenyl at the 2-position are potent PARP inhibitors” (AbbVie Inc., priority 2005, dated 2014).
# Tested on: MX-1 Breast Carcinoma Xenograft
# Experiment: PARP inhibitors in combination with cisplatin in an early staged MX-1 breast carcinoma xenograft model
# Type: in vivo, female SCID mice
# Conditions: average tumor volume at Day 48; PARPi 25 or 0 mg/kg/day s.c. OMP x7 from day 16 + cisplatin 6 mg/kg/day i.p. qd x1 on day 18; footnote a not given; in mm³ (unit assumed)
# Experimental: PARP Inhibitors in Combination with Cisplatin in an Early Staged MX-1 Breast Carcinoma Xenograft Model
# 0.2 cc of 1:10 MX-1 tumor brei, was injected subcutaneously into the flank of female SCID mice (Charles River Labs) on study day 0. On day 15, tumors were size matched (188±25 mm^3) and the animals were placed into one of two therapy groups:
# Group 1 vehicle (s.c. OMP×7)+Cisplatin 6 mg/kg/day (i.p., qd×1)
# Group 2 PARPi 25 mg/kg/day (s.c. OMP×7)+Cisplatin 6 mg/kg/day (i.p., qd×1) The vehicle for both the PARP inhibitor and cisplatin was 0.9% NaCl. There were 8-10 […] in each group. Treatment with the PARPi began on day 16 while cisplatin treatment was started on day 18. At various intervals following tumor cell inoculation, the individual tumor dimensions were serially measured using calibrated microcalipers and the tumor volumes calculated according to the formula V=L×W^2/2 (V:volume, L:length, W:width). Mice were humanely euthanized when the tumor volumes reached a predetermined size.
structure (smiles),measurement,value
"N.N.[Cl][Pt][Cl] [Vhl (PARPi)/Cis, Cisplatin]",Tumor Volume (Day 48),1389 ± 300
